# Reference: patent US7247456B2, “Preparation of fucosylated oligosaccharides” (Neose Technologies, Inc., priority 1998, dated 2007)
# “Also recorded” adds a separate entry of the source. Read-outs that look alike come from different tables or passages of the source.
# Tests used:
# [1] = molecular target: T1, GDP-mannose dehydratase (Escherichia coli, UniProt P0AC88); assay: GDP-mannose dehydratase reverse phase HPLC activity assay; format: biochemical, E. coli; conditions: for effect on GDP-mannose dehydratase activity: concentrations ranging from 1-20 mM
# T1 construct: made in house; host or cells: E. coli JM101 (plasmid pTGK:GMD), French-press lysate supernatant
# Procedure: (§1) To assay GDP-mannose dehydratase activity, a reverse phase HPLC assay was developed. […] […] Twenty μl of the assay mix was injected over the C18 column.
# (§2) By comparing the peak area of the no enzyme control, corresponding to 200 nmole, the decrease in the peak area of GDP-mannose was used to directly measure the activity of GDP-mannose dehydratase by the following formulae: (No enzyme peak area)−(enzyme peak area)=(Peak area of GDP-mannose consumed) 1. (Peak area of GDP-mannose consumed)/(No enzyme peak area)=% of 200 nmole GDP-mannose consumed. 2.
# (§3) To control for any carryover loss upon HPLC injection, 10 nmole of CTP was added to the sample to be analyzed.
# [2] = molecular target: YEF B (Escherichia coli, UniProt P32055, E255D/L256V); conditions: for YEF B Activity %: none = 100; for effect on YEF B activity: varying concentrations of metal ion
# YEF B, sequence (P32055 whole entry E255D/L256V): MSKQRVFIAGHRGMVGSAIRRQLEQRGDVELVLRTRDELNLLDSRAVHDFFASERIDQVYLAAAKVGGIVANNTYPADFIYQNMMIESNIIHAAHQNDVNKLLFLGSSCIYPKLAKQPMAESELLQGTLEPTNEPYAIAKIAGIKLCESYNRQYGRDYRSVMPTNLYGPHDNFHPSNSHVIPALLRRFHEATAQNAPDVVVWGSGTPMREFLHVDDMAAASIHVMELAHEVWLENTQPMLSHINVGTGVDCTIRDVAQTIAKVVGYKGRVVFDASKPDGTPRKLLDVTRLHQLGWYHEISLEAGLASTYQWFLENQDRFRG
# Procedure: To assay YEF B activity, a reverse phase HPLC assay was developed. An Aquesil C18 reverse phase column was set up in-line on a Beckman 126 solvent monitor. The column was eluted isocratically with 0.5M KH2PO4 over twenty minutes with a flow rate of 1 ml/min. A photodiode array detector was employed to monitor the elution scanning the 210-300 nm wavelength range.
# A coupled assay was employed to assay YEF B activity. This was required since its substrate, GDP-4-keto-6-deoxymannose, is unstable and not commercially available. Twenty mUnit of GDP-mannose dehydratase was allowed to react with 480 nMole of GDP-mannose for 20 minutes under standard assay conditions as previously. […] The reaction was allowed to proceed for ten minutes at which point the reaction was stopped by freezing on dry ice. After thawing 10 μl aliquots were analyzed by reverse phase HPLC analysis. The amount of GDP fucose formed was calculated by analyzing a separate assay mix in the absence of GDP-mannose dehydratase to yield a 100% value for the absorption peak of GDP-mannose. […] to yield percentage of GDP-fucose formed. (% GDP-fucose)(nMole GDP-mannose in reaction)=nMole GDP-fucose formed.
# The assay pH was varied from 6.5 to 8.0 using MES and Tris as buffers. The standard assay mix contained 20 mUnit GDP-mannose dehydratase, […] GDP-mannose, […], 10 mUnit glucose dehydrogenase (to recycle NADPH utilized by YEF B), 50 mM buffer at the appropriate pH and YEF B at appropriate dilution. The reaction was allowed to proceed for 15 minutes at 37° C. and immediately frozen on dry ice to stop the reaction. Ten μl aliquots were removed after thawing and analyzed by reverse phase HPLC.
# [3] = molecular target: T2, E. coli K12 GDP-mannose dehydratase (GDP-mannose 4,6-dehydratase, GMD), recombinant wild type from pTGK:GMD (Escherichia coli, UniProt P0AC88); assay: Linearity of the GDP-mannose dehydratase assay with time (product inhibition); format: biochemical; conditions: linear up to 30 minutes, up to 90% of substrate consumed
# T2 construct: made in house; host or cells: E. coli JM101 (plasmid pTGK:GMD), supernatant of French press lysate
# Procedure: (§4) C. Assay of GDP-Mannose Dehydratase
# (§5) To assay GDP-mannose dehydratase activity, a reverse phase HPLC assay was developed. […] GDP-mannose dehydratase activity was determined by reacting GDP-mannose dehydratase extract with 480 nmole of GDP-mannose in 50 mM Tris pH 7.5, 0.15 mM NADP^+ (NADP^+ is absolutely required for GDP-mannose dehydratase activity) in a 100 μl reaction volume. Twenty μl of the assay mix was injected over the C18 column.
# as §2
# Samples were thawed and immediately injected over an aquasil reverse phase HPLC column.
# [4] = molecular target: T2, E. coli K12 GDP-mannose dehydratase (GDP-mannose 4,6-dehydratase, GMD), recombinant wild type from pTGK:GMD; assay: Cofactor (NADP+) dependence of GDP-mannose dehydratase (Table 5); format: biochemical
# Procedure: as §4, §5, §2, §3
# [5] = molecular target: T3, fucosyltransferase V (FT V) (Homo sapiens, UniProt Q11128); assay: Inhibition of fucosyltransferase V; format: biochemical; conditions: compared with GDP
# T3 construct: printed for the preparative synthesis
# T3 sequence (Q11128 1-374): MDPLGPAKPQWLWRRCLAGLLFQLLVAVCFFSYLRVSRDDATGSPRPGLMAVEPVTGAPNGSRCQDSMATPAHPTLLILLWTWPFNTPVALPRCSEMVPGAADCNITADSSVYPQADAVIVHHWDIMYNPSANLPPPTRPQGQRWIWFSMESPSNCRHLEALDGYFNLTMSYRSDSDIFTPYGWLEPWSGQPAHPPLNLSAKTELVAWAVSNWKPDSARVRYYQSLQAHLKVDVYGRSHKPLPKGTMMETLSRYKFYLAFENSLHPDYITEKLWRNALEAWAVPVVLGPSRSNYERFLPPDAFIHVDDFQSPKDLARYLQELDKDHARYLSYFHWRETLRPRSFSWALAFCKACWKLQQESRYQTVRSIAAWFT
# [6] = molecular target: T2, E. coli K12 GDP-mannose dehydratase (GDP-mannose 4,6-dehydratase, GMD), recombinant wild type from pTGK:GMD; assay: Inhibition of GDP-mannose dehydratase (GMD) by GDP-fucose, reverse phase HPLC assay (FIG. 5); format: biochemical
# Procedure: as §4, §5, §2, §3
# Since GDP-mannose dehydratase represents the first committed step in GDP-fucose biosynthesis it is possible that GDP-fucose is a feedback inhibitor of the enzyme. To determine if this is true, the standard assay was performed in the presence of increasing amounts of GDP-fucose. […]
# [7] = molecular target: T4, GDP-mannose dehydratase (Sus scrofa, UniProt F1RX12); conditions: cited from earlier work
# T4 sequence (F1RX12 1-372): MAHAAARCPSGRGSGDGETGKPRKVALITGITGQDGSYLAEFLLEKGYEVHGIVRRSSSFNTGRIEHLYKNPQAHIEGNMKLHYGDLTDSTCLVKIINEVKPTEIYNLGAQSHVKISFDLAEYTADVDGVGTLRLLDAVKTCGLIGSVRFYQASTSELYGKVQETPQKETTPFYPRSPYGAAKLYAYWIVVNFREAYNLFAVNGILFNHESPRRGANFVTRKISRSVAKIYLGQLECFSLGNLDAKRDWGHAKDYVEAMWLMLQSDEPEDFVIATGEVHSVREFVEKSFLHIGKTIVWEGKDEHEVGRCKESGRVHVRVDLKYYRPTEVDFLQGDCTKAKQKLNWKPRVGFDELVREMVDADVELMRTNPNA
# [8] = tested on: GDP-mannose dehydratase; conditions: cited from earlier work
# [9] = molecular target: T5, GDP-mannose dehydratase (Escherichia coli, UniProt P0AC88); assay: GDP-mannose dehydratase reverse phase HPLC activity assay; format: biochemical, E. coli; conditions: 10 mUnit alkaline phosphatase included in the assay
# T5 construct: made in house; host or cells: E. coli JM101 (plasmid pTGK:GMD), French-press lysate supernatant
# T5 sequence (P0AC88 whole entry, looked up): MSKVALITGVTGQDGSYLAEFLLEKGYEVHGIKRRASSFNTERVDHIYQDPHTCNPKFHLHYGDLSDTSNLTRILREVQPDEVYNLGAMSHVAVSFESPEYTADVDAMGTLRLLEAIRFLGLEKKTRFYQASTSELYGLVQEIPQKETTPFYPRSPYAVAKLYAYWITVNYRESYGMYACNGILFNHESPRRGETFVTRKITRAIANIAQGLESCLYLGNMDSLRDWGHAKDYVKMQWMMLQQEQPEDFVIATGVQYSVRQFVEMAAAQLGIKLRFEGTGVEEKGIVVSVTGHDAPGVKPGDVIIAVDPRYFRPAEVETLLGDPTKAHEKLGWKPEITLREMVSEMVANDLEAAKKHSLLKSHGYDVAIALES
# Procedure: as §1, §2, §3
# [10] = molecular target: T6, fucosyltransferase V (Homo sapiens, UniProt Q11128); conditions: literature statement; cited from earlier work
# T6 sequence (Q11128 1-374): T3 sequence (Q11128 1-374)
# [11] = tested on: fucosyltransferases; conditions: cited from earlier work
compound,measurement,setting,value
[Cl-].[Cl-].[Mg+2] [MgCl2],% GDP-mannose Dehydratase Activity mUnit/ml,[1]; 1 mM metal ion,560 mUnit/ml
same,% GDP-mannose Dehydratase Activity mUnit/ml,[1]; 10 mM metal ion,610 mUnit/ml
same,% GDP-mannose Dehydratase Activity mUnit/ml,[1]; 20 mM metal ion,590 mUnit/ml
same,effect on GDP-mannose dehydratase activity,[1],essentially no effect
same,YEF B Activity %,[2]; 1 mM metal ion,110%
same,YEF B Activity %,[2]; 10 mM metal ion,110%
same,effect on YEF B activity,[2],somewhat stimulatory
"C[C@H]1O[C@H](OP(=O)(O)OP(=O)(O)OC[C@H]2O[C@@H](n3cnc4c(=O)[nH]c(N)nc43)[C@H](O)[C@@H]2O)[C@@H](O)[C@@H](O)C1=O [GDP-4-keto-6 deoxymannose, GDP-4-keto-6-deoxymannose]",inhibition of GDP-mannose dehydratase by the product,[3],does not inhibit the enzyme
"NC(=O)c1ccc[n+]([C@@H]2O[C@H](COP(=O)(O)OP(=O)(O)OC[C@H]3O[C@@H](n4cnc5c(N)ncnc54)[C@H](O)[C@@H]3O)[C@@H](O)[C@H]2O)c1 [NAD, NAD^+]",% GDP-mannose dehydratase activity,[4]; cofactor at 1 mM,not detected
same,substitution for NADP+ as cofactor,[4]; in place of NADP+,will not substitute for NADP^+
[Cl][Mn][Cl] [MnCl2],% GDP-mannose Dehydratase Activity mUnit/ml,[1]; 1 mM metal ion,580 mUnit/ml
same,% GDP-mannose Dehydratase Activity mUnit/ml,[1]; 10 mM metal ion,570 mUnit/ml
same,% GDP-mannose Dehydratase Activity mUnit/ml,[1]; 20 mM metal ion,620 mUnit/ml
same,effect on GDP-mannose dehydratase activity,[1],essentially no effect
same,YEF B Activity %,[2]; 1 mM metal ion,60%
same,YEF B Activity %,[2]; 10 mM metal ion,25%
same,effect on YEF B activity,[2],severely inhibited in a dose dependent manner
NC(=O)c1ccc[n+]([C@@H]2O[C@H](COP(=O)(O)OP(=O)(O)OC[C@H]3O[C@@H](n4cnc5c(N)ncnc54)[C@H](O)[C@@H]3O)[C@@H](O)[C@H]2O)c1 [NAD],% GDP-mannose dehydratase activity,[1]; 1 mM cofactor,not detected
C[C@H]1O[C@H](OP(=O)(O)OP(=O)(O)OC[C@H]2O[C@@H](n3cnc4c(=O)[nH]c(N)nc43)[C@H](O)[C@@H]2O)[C@@H](O)[C@@H](O)C1=O [GDP-4-keto-6-deoxymannose],inhibition of GDP-mannose dehydratase by its product,[1]; assay linear up to 90% of substrate consumed,does not inhibit the enzyme
Nc1nc2c(ncn2[C@@H]2O[C@H](COP(=O)(O)OP(=O)(O)OP(=O)(O)O)[C@@H](O)[C@H]2O)c(=O)[nH]1 [GTP],inhibitory potency relative to GDP (fold less potent),[5],10 ×
C[C@@H]1O[C@H](OP(=O)(O)OP(=O)(O)OC[C@H]2O[C@@H](n3cnc4c(=O)[nH]c(N)nc43)[C@H](O)[C@@H]2O)[C@@H](O)[C@H](O)[C@@H]1O [GDP-fucose],IC50,"[6]; restated for the 0.2 kG scale production, quantity not given, read-out: inhibitor concentration (""40 μM inhibitor"", see FIG. 5)",40 µM
same,IC50,"[6]; standard assay: 480 nmole GDP-mannose, 50 mM Tris pH 7.5, 0.15 mM NADP+, 100 μl, increasing amounts of GDP-fucose, read-out: IC50",~40 µM
same,catalytic activity of GDP-mannose dehydratase remaining,[7]; at 50 μM GDP-fucose,10%
same,remaining catalytic activity of GDP-mannose dehydratase,[8]; at 50 μM GDP-fucose,10%
same,inhibition of GDP-mannose dehydratase,[8],strongly inhibited
NC(=O)c1ccc[n+]([C@@H]2O[C@H](COP(=O)(O)OP(=O)(O)OC[C@H]3O[C@@H](n4cnc5c(N)ncnc54)[C@H](OP(=O)(O)O)[C@@H]3O)[C@@H](O)[C@H]2O)c1 [NADP],% GDP-mannose dehydratase activity,[1]; 0.15 mM cofactor,100%
same,% GDP-mannose dehydratase activity,[1]; 1 mM cofactor,100%
Alkaline Phosphatase,% GDP-mannose dehydratase activity,[9],not detected
same,% GDP-mannose dehydratase activity,[9]; listed as alkaline phosphatase,severely attenuated
Nc1nc2c(ncn2[C@@H]2O[C@H](COP(=O)(O)OP(=O)(O)O)[C@@H](O)[C@H]2O)c(=O)[nH]1 [GDP],inhibition of fucosyltransferases,[10],inhibit; also recorded: potent inhibitor
same,inhibition of GDP-mannose dehydratase,[7]; literature statement,inhibit
same,inhibition of GDP-mannose dehydratase,[8],known to inhibit
same,inhibition of fucosyltransferases,[11],known to inhibit
"NC(=O)c1ccc[n+]([C@@H]2O[C@H](COP(=O)(O)OP(=O)(O)OC[C@H]3O[C@@H](n4cnc5c(N)ncnc54)[C@H](OP(=O)(O)O)[C@@H]3O)[C@@H](O)[C@H]2O)c1 [NADP, NADP^+]",activity at 1000 µM,[4]; cofactor at 1 mM,100%
